Reference: patent publication US7074789B2, “Kinase inhibitors” (Amgen Inc., priority 1999, dated 2006)
Where two headings read alike, the source gives them in different places.

Legend:
Type in all cases: biochemical
c-Met = target: T1, c-Met (Homo sapiens, UniProt P08581); test: Kinase inhibition assay (33P transfer), c-Met; details: Table 2, kinase inhibition class; read-out: Met-1
T1 construct: Kinases are expressed as either kinase domains or full length constructs; made in house
Excerpt: (§1) The inhibitor compounds described herein are screened in the following manner. Kinases suitable for use in the following protocol to determine kinase activity of the compounds described herein include, -but are not limited to: Lck, Lyn, Src, Fyn, Syk, Zap-70, Itk, Tec, Btk, EGFR, ErbB2, Kdr, Flt-1, Flt-3, Tek, c-Met, InsR, and AKT.
(§2) Kinases are expressed as either kinase domains or full length constructs fused to glutathione S-transferase (GST) or polyHistidine tagged fusion proteins in either E. colior Baculovirus-High Five expression systems. They are purified to near homogeneity by affinity chromatography essentially as previously described (Lehr et al., 1996; Gish et al., 1995). In some instances, kinases are co-expressed or mixed with purified or partially purified regulatory polypeptides prior to measurement of activity.
(§3) Kinase activity and inhibition are measured essentially by established protocols (Braunwalder et al., 1996). Briefly, The transfer of ^33PO4 from ATP to the synthetic substrates poly(Glu, Tyr) 4:1 or poly(Arg, Ser) 3:1 attached to the bioactive surface of microtiter plates serves as the basis to evaluate enzyme activity. After an incubation period, the amount of phosphate transferred is measured by first washing the plate with 0.5% phosphoric acid, adding liquid scintillant, and then counting in a liquid scintillation detector. The IC50 is determined by the concentration of compound that causes a 50% reduction in the amount of […] incorporated onto the substrate bound to the plate.

Lck = target: T2, Lck (Homo sapiens, UniProt P06239); test: Kinase inhibition assay (33P transfer), Lck; details: read-out: Lck-1
T2 construct: Kinases are expressed as either kinase domains or full length constructs; made in house
Excerpt: as §1
as §2, with “They are purified to near homogeneity by affinity chromatography essentially as previously described (Lehr et al., 1996; Gish et al., 1995).” left out
(§4) Briefly, The transfer of ^33PO4 from ATP to the synthetic substrates poly(Glu, Tyr) 4:1 or poly(Arg, Ser) 3:1 attached to the bioactive surface of microtiter plates serves as the basis to evaluate enzyme activity. After an incubation period, the amount of phosphate transferred is measured by first washing the plate with 0.5% phosphoric acid, adding liquid scintillant, and then counting in a liquid scintillation detector.

Itk = target: T3, Itk (Homo sapiens, UniProt Q08881); test: Kinase inhibition assay (33P transfer), Itk; details: read-out: Itk-1
T3 construct: Kinases are expressed as either kinase domains or full length constructs; made in house
T3 sequence (Q08881 1-620): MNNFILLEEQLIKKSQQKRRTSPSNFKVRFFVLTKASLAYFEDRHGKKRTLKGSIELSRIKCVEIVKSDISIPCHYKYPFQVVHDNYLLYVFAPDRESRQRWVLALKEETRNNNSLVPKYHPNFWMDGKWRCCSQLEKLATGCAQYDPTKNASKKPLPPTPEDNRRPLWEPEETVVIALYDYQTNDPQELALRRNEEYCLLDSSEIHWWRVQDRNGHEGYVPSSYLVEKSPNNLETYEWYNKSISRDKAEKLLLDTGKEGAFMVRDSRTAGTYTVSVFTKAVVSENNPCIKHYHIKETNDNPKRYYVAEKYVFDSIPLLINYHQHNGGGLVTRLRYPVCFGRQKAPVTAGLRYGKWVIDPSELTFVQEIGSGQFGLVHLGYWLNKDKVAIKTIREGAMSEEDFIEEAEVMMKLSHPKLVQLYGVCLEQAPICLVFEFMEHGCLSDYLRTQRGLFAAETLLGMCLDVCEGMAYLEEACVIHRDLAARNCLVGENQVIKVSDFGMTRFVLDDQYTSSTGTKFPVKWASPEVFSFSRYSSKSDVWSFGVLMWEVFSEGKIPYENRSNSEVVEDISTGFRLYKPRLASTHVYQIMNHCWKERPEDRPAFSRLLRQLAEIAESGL
Excerpt: as §1, §2, §3

EGFR = target: T4, EGFR (Homo sapiens, UniProt P00533); test: Kinase inhibition assay (33P transfer), EGFR; details: Table 2, kinase inhibition class; read-out: EGFR-1
T4 construct: Kinases are expressed as either kinase domains or full length constructs; made in house
Excerpt: as §1, §2, §3

Zap-70 = target: T5, Zap-70 (Homo sapiens, UniProt P43403); test: Kinase inhibition assay (33P transfer), Zap-70; details: read-out: Zap-1
T5 construct: Kinases are expressed as either kinase domains or full length constructs; made in house
T5 sequence (P43403 1-619): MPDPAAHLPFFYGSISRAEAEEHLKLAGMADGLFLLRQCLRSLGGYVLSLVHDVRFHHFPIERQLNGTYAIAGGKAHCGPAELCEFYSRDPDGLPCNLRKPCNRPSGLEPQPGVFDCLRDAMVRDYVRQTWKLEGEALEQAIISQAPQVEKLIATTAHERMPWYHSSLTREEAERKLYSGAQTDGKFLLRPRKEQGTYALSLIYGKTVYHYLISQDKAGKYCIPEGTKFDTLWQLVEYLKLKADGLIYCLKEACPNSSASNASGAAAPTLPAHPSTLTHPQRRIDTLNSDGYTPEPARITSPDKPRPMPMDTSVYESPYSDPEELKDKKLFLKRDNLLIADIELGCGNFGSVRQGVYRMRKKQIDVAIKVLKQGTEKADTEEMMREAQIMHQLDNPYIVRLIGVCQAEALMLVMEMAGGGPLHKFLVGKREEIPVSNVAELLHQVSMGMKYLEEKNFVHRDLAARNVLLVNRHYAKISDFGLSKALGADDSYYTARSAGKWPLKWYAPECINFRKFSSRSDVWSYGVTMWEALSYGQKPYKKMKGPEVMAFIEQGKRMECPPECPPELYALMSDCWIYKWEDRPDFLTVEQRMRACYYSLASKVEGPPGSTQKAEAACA
Excerpt: as §1
as §2, with “They are purified to near homogeneity by affinity chromatography essentially as previously described (Lehr et al., 1996; Gish et al., 1995).” left out
as §4

Kdr = target: T6, Kdr (Homo sapiens, UniProt P35968); test: Kinase inhibition assay (33P transfer), Kdr; details: read-out: KDR-1
T6 construct: Kinases are expressed as either kinase domains or full length constructs; made in house
Excerpt: as §1
as §2, with “They are purified to near homogeneity by affinity chromatography essentially as previously described (Lehr et al., 1996; Gish et al., 1995).” left out
as §4

AKT = target: T7, AKT (Homo sapiens, UniProt Q9Y243); test: Kinase inhibition assay (33P transfer), AKT; details: Table 2, kinase inhibition class; read-out: AKT3-1
T7 construct: Kinases are expressed as either kinase domains or full length constructs; made in house
Excerpt: as §1
as §2, with “They are purified to near homogeneity by affinity chromatography essentially as previously described (Lehr et al., 1996; Gish et al., 1995).” left out
as §4

T1 sequence (P08581 25-1390): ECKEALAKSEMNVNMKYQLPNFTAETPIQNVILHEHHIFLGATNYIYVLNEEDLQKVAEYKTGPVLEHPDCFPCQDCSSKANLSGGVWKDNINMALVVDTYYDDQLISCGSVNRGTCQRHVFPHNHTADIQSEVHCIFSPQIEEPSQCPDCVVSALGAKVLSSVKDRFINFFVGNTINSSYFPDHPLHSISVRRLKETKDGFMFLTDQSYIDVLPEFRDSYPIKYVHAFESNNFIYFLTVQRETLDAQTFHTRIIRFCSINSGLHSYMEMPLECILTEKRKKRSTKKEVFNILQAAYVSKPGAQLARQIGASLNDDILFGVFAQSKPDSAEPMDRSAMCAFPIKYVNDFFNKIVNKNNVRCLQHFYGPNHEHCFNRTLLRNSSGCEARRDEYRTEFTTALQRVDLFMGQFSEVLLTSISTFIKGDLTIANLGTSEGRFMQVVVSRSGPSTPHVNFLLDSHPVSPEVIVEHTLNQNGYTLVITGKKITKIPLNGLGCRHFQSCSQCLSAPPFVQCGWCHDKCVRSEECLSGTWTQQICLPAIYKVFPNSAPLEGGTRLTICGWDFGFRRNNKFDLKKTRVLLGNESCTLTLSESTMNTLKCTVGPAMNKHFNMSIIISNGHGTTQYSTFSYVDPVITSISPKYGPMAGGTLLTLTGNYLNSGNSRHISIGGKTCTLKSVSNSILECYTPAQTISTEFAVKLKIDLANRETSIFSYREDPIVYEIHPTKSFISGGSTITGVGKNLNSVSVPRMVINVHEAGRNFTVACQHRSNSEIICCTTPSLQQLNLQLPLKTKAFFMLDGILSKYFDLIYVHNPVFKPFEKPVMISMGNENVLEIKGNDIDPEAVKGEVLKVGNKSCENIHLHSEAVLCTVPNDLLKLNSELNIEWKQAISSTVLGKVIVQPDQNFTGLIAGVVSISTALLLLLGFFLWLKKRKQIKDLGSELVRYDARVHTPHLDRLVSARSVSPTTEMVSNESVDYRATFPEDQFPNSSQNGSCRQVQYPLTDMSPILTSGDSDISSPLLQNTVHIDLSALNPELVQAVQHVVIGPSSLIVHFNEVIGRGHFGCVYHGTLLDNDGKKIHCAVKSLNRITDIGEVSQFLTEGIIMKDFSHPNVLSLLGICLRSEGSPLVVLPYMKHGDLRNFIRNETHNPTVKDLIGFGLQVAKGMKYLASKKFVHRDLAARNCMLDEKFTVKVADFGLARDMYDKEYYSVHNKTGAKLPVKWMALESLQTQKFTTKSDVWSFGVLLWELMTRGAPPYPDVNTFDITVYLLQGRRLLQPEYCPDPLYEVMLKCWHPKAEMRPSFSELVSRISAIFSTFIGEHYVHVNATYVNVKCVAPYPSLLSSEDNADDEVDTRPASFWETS
T6 sequence (P35968 20-1356, species assumed): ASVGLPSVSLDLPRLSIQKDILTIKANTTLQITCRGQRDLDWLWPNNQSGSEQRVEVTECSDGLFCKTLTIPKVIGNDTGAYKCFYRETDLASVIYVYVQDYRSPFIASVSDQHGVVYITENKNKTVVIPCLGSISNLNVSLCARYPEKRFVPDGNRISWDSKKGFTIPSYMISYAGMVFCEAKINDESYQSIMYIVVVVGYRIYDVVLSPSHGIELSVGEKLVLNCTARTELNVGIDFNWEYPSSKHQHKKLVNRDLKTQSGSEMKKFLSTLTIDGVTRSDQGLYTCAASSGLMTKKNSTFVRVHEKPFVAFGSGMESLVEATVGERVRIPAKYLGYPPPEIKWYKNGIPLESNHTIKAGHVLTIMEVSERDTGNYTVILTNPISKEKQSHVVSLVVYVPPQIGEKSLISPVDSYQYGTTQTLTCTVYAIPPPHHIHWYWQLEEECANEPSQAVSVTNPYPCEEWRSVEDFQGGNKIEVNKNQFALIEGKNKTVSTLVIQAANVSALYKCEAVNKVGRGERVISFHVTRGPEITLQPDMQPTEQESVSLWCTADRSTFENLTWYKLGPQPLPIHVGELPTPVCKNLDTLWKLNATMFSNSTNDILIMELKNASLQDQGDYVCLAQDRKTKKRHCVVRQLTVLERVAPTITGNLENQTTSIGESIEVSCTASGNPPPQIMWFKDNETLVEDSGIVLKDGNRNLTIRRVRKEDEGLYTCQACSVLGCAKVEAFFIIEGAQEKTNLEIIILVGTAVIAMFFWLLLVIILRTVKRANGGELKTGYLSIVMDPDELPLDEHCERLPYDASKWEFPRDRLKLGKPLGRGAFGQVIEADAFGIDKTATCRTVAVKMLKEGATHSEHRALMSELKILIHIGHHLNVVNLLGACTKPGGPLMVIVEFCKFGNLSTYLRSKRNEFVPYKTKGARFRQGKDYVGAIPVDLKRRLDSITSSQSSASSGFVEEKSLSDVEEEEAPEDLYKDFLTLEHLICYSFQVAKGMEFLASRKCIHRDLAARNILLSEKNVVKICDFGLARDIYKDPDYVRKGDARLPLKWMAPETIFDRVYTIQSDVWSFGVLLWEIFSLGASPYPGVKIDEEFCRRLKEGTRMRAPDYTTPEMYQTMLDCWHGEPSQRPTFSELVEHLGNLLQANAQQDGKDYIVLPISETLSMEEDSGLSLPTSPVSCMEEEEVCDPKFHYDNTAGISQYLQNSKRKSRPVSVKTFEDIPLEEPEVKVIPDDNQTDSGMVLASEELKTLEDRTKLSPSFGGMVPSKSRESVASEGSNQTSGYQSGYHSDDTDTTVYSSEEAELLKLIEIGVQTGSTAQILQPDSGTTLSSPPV
T4 sequence (P00533 25-1210, species assumed): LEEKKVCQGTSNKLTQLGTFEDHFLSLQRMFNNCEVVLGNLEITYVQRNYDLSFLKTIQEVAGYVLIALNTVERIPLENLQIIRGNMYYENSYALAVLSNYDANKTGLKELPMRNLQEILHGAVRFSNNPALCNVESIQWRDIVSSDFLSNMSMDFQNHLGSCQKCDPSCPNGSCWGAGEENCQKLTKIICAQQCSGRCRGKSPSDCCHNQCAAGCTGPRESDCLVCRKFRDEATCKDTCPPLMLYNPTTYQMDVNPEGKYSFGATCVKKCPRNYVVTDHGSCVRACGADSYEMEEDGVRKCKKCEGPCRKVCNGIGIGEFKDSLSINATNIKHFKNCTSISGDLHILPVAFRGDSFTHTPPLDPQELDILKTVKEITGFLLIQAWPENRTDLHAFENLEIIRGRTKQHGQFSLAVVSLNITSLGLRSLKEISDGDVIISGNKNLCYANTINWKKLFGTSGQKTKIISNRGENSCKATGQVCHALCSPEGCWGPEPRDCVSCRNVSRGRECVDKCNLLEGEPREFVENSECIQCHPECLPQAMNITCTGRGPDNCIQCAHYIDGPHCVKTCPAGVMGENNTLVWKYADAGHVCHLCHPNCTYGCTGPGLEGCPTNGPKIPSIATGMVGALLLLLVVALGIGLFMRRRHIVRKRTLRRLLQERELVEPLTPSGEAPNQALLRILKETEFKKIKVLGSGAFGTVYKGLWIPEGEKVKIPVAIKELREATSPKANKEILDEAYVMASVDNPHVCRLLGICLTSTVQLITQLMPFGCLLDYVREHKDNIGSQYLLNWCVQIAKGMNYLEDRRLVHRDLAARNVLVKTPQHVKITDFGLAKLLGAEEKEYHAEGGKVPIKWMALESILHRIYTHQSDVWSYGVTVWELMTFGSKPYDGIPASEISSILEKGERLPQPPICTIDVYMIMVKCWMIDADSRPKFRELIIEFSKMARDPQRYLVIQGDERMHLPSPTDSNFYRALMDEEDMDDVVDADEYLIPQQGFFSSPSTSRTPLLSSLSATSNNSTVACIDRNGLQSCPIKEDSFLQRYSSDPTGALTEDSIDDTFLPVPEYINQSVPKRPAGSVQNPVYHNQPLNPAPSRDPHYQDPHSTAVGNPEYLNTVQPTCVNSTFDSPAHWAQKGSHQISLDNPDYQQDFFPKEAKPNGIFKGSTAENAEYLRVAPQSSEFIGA
T7 sequence (Q9Y243 whole entry, the tested form may be a part): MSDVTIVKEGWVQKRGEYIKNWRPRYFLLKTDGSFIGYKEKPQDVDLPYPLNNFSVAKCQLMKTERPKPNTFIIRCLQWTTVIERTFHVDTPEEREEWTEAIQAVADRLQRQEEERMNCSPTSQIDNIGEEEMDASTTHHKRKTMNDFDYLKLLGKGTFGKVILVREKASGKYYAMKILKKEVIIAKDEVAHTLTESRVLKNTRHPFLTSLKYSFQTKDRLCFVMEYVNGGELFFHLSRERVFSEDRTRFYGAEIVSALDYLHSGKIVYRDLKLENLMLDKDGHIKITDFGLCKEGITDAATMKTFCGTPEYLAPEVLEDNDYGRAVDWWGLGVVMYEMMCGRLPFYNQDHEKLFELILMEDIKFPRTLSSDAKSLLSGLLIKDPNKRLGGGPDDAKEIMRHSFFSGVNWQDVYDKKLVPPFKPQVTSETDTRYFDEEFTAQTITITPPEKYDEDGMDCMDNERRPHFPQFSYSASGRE
T2 sequence (P06239 whole entry, species assumed, the tested form may be a part): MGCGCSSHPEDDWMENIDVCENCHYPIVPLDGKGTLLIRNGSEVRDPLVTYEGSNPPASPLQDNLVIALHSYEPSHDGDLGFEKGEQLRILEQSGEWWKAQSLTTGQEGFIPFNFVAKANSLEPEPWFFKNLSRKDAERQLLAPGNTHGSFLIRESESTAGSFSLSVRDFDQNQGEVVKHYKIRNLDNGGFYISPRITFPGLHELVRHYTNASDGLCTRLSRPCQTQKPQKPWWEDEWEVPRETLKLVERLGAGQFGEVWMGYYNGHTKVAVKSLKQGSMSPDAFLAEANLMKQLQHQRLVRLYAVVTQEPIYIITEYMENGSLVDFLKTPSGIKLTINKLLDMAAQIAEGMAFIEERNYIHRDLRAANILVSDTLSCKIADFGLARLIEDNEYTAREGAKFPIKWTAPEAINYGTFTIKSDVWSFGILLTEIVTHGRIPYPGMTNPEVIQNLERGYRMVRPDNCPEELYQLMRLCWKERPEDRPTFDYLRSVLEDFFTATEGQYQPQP

IC50 (c-Met) [µM] | IC50 (Lck; Table 3) [µM] | IC50 (Itk; Table 3) [µM] | IC50 (EGFR) [µM] | IC50 (Zap-70; Table 3) [µM] | IC50 (Kdr; Table 3) [µM] | IC50 (AKT) [µM] | IC50 (Lck) [µM] | IC50 (Itk) [µM] | IC50 (Zap-70) [µM] | IC50 (Kdr) [µM] | Structure (SMILES)
> 9.97 | > 9.97 | > 9.97 | > 9.97 | > 9.97 | > 9.97 | > 9.97 | – | – | – | – | CC[C@H]1CN(c2ccc(-c3ncnc(Nc4cc(OC)c(OC)c(OC)c4)n3)cn2)CCN1 [Compound 446]
7.49 to 10.9 | – | – | 1.25 to 7.49 | – | – | > 14 | 7.49 to 10.9 | 10.9 to 14 | > 14 | 1.25 to 7.49 | O=c1[nH]c2ccccc2n1-c1ncnc(Nc2ccc(O)cc2)n1 [Compound 682]
> 15.4 | > 15.4 | > 15.4 | > 15.4 | > 15.4 | > 15.4 | > 15.4 | – | – | – | – | COc1ncnc(Nc2cc(OC)c(OC)c(OC)c2)n1 [Compound 421]
> 10.1 | – | – | > 10.1 | – | – | > 10.1 | 5.39 to 7.86 | > 10.1 | > 10.1 | < 0.898 | COc1cc(Nc2ncnc(-c3cccnc3NCc3ccccn3)n2)cc(OC)c1OC [Compound 1080]
7.08 to 10.3 | > 13.3 | > 13.3 | > 13.3 | > 13.3 | 1.18 to 7.08 | > 13.3 | – | – | – | – | O=c1[nH]c2ccccc2n1-c1ncnc(Nc2ccc(Cl)cc2)n1 [Compound 458]
> 10.6 | > 10.6 | > 10.6 | > 10.6 | > 10.6 | 0.94 to 5.64 | > 10.6 | – | – | – | – | CC(=O)NS(=O)(=O)c1ccc(Nc2ncnc(-n3c(=O)[nH]c4ccccc43)n2)cc1 [Compound 452]
> 12.7 | – | – | > 12.7 | – | – | > 12.7 | > 12.7 | > 12.7 | 6.75 to 9.85 | > 12.7 | O=c1[nH]c2ccccc2n1-c1ncnc(Nc2cccc3cccnc23)n1 [Compound 688]
1.15 to 6.93 | – | – | 6.93 to 10.1 | – | – | > 13 | 1.15 to 6.93 | 1.15 to 6.93 | > 13 | < 1.15 | CN(C)c1ccc(Nc2ncnc(-n3c(N)nc4ccccc43)n2)cc1 [Compound 527]
> 13.4 | – | – | > 13.4 | – | – | > 13.4 | > 13.4 | > 13.4 | > 13.4 | > 13.4 | COc1ccc(Nc2ncnc(-n3c(=O)[nH]c4ccccc43)n2)cn1 [Compound 489]
1.14 to 6.81 | – | – | 1.14 to 6.81 | – | – | 1.14 to 6.81 | 1.14 to 6.81 | 1.14 to 6.81 | > 12.8 | 1.14 to 6.81 | CC(C)(C)c1cc(Nc2ncnc(Nc3ccc(C(N)=O)cc3)n2)[nH]n1 [Compound 502]
> 10.9 | – | – | > 10.9 | – | – | > 10.9 | > 10.9 | > 10.9 | > 10.9 | 0.972 to 5.83 | COc1cc(Nc2ncnc(-c3ccc(NCCCN)nc3)n2)cc(OC)c1OC [Compound 472]
> 13 | – | – | > 13 | – | – | > 13 | 1.15 to 6.91 | > 13 | > 13 | < 1.15 | C=CCNc1ncccc1-c1ncnc(Nc2ccc(C(N)=O)cc2)n1 [Compound 1081]
> 11 | – | – | > 11 | – | – | > 11 | > 11 | > 11 | > 11 | 0.975 to 5.85 | COc1cc(Nc2ncnc(Nc3nc4ccccc4s3)n2)cc(OC)c1OC [Compound 469]
< 1.18 | – | – | 1.18 to 7.07 | – | – | > 13.3 | 1.18 to 7.07 | 1.18 to 7.07 | > 13.3 | 1.18 to 7.07 | CC(C)(C)c1cc(Nc2ncnc(Nc3ccc(CO)cc3)n2)[nH]n1 [Compound 501]
> 12.7 | – | – | > 12.7 | – | – | > 12.7 | > 12.7 | > 12.7 | > 12.7 | > 12.7 | O=c1[nH]c2ccccc2n1-c1ncnc(Nc2cccc3ncccc23)n1 [Compound 686]
> 13 | > 13 | > 13 | > 13 | > 13 | 1.15 to 6.91 | > 13 | – | – | – | – | NC(=O)c1ccc(Nc2ncnc(-n3c(=O)[nH]c4ccccc43)n2)cc1 [Compound 419]
> 13.3 | 10.3 to 13.3 | > 13.3 | 7.08 to 10.3 | > 13.3 | 1.18 to 7.08 | > 13.3 | – | – | – | – | O=c1[nH]c2ccccc2n1-c1ncnc(Nc2cccc(Cl)c2)n1 [Compound 457]
> 9.38 | – | – | 7.3 to 9.38 | – | – | > 9.38 | 5.01 to 7.3 | 0.834 to 5.01 | > 9.38 | > 9.38 | COc1ccc(-c2cn[nH]c2Nc2ncnc(Nc3cc(OC)c(OC)c(OC)c3)n2)cc1OC [Compound 470]
> 15.4 | 12 to 15.4 | > 15.4 | > 15.4 | > 15.4 | > 15.4 | > 15.4 | – | – | – | – | CNc1ncnc(Nc2cc(OC)c(OC)c(OC)c2)n1 [Compound 409]
> 11.8 | > 11.8 | > 11.8 | > 11.8 | > 11.8 | > 11.8 | > 11.8 | – | – | – | – | COc1cc(Nc2ncnc(-c3ccc(N(C)C)nc3)n2)cc(OC)c1OC [Compound 449]
> 12.7 | – | – | > 12.7 | – | – | > 12.7 | > 12.7 | > 12.7 | > 12.7 | > 12.7 | O=c1[nH]c2ccccc2n1-c1ncnc(Nc2cccc3ccccc23)n1 [Compound 683]
> 14.7 | – | – | > 14.7 | – | – | > 14.7 | > 14.7 | > 14.7 | > 14.7 | > 14.7 | O=c1[nH]c2ccccc2n1-c1ncnc(Nc2ncccn2)n1 [Compound 490]
> 10.6 | > 10.6 | > 10.6 | > 10.6 | > 10.6 | > 10.6 | > 10.6 | – | – | – | – | COc1cc(Nc2ncnc(-c3ccc(N4CCOCC4)nc3)n2)cc(OC)c1OC [Compound 434]
